Reference: ChEMBL document CHEMBL5365432, “Anticancer Activities of DNA-Alkylating Pyrrole-Imidazole Polyamide Analogs Targeting RUNX Transcription Factors against p53-Mutated Pancreatic Cancer PANC-1 Cells” (J Med Chem, 2023)
Activity calls are given as the source filed them. The rule behind the calls is not given here.

What was measured:
[1] = Toxicity in CB17.Cg-PrkdcscidLystbg-j/CrlCrlj mouse xenografted with human PANC-1 cells assessed as body weight loss at 5 mg/kg, iv administered twice a week for 3 weeks; format: organism-based; conditions: in vivo, 504 h
DNA [2] = assay: Binding affinity to DNA (unknown origin) assessed as DNA alkylation at RUNX-binding site at 150 uM incubated for 18 hrs by HPLC analysis; format: nucleic-acid assay
PANC-1 [3] = assay: Induction of apoptosis in human PANC-1 cells assessed as increase in phosphorylated p53 protein level at S15 residue at 3 uM incubated for 72 hrs by proteomic profiling array; format: functional, cell-based
PANC-1 [4] = assay: Induction of apoptosis in human PANC-1 cells assessed as upregulation of TAp63 mRNA level at 3 uM incubated for 48 hrs by RT-qPCR analysis; format: functional, cell-based
PANC-1 [5] = assay: Induction of apoptosis in human PANC-1 cells assessed as suppression of BCL11A mRNA level at 3 uM incubated for 48 hrs by RT-qPCR analysis; format: functional, cell-based
PANC-1 [6] = assay: Induction of apoptosis in human PANC-1 cells assessed as viable cells at 3 uM incubated for 72 hrs by Annexin V-FITC/PI staining based flow cytometry (reference value: 94.3 %); format: functional; conditions: read-out: Activity
PANC-1 [7] = assay: Cytotoxicity against human PANC-1 cells assessed as cell viability at 3 uM incubated for 3 days by colorimetric assay relative to control; format: functional; conditions: PANC-1, 72 h, time 3 day, read-out: Activity
PANC-1 [8] = assay: Induction of apoptosis in human PANC-1 cells assessed as increase in phosphorylated p53 protein level at S46 residue at 3 uM incubated for 72 hrs by proteomic profiling array; format: functional, cell-based
[9] = Cytotoxicity against human hTERT-HPNE cells assessed as cell viability at 3 uM incubated for 3 days by colorimetric assay relative to control; format: toxicity, cell-based; conditions: time 3 day, read-out: Activity
PANC-1 [10] = assay: Induction of apoptosis in human PANC-1 cells assessed as early apoptotic cells at 3 uM incubated for 72 hrs by Annexin V-FITC/PI staining based flow cytometry (reference value: 1.5 %); format: functional
DNA [11] = assay: Binding affinity to DNA (unknown origin) assessed as formation of DNA alkylation product at 150 uM incubated for 18 hrs measured after 20 mins by HPLC/MALDI-TOF MS analysis; format: nucleic-acid assay; conditions: time 18.33 hrs
PANC-1 [12] = assay: Induction of apoptosis in human PANC-1 cells assessed as increase in phosphorylated p53 protein level at S392 residue at 3 uM incubated for 72 hrs by proteomic profiling array; format: functional, cell-based
PANC-1 [13] = assay: Induction of apoptosis in human PANC-1 cells assessed as upregulation of TAp73 mRNA level at 3 uM incubated for 48 hrs by RT-qPCR analysis; format: functional, cell-based
PANC-1 [14] = assay: Induction of apoptosis in human PANC-1 cells assessed as late apoptotic cells at 3 uM incubated for 72 hrs by Annexin V-FITC/PI staining based flow cytometry (reference value: 2.9 %); format: functional
PANC-1 [15] = assay: Induction of apoptosis in human PANC-1 cells assessed as necrotic cells at 3 uM incubated for 72 hrs by Annexin V-FITC/PI staining based flow cytometry (reference value: 1.2 %); format: functional
PANC-1 [16] = assay: Anti-cancer activity against human PANC-1 cells xenografted in CB17.Cg-PrkdcscidLystbg-j/CrlCrlj mouse assessed as fold change in tumor volume at 1 mg/kg, iv administered twice a week for 3 weeks relative to gemcitabine; format: functional
PANC-1 [17] = assay: Anti-cancer activity against human PANC-1 cells xenografted in CB17.Cg-PrkdcscidLystbg-j/CrlCrlj mouse assessed as reduction in tumor volume at 5 mg/kg, iv administered twice a week for 3 weeks; format: functional, organism-based

| Structure (SMILES) | Activity [1] | Activity (DNA [2]) | Activity (PANC-1 [3]) | Activity (PANC-1 [4]) | Activity (PANC-1 [5]) | viability at 3 µM (PANC-1 [6]) | viability at 3 µM (PANC-1 [7]) | Activity (PANC-1 [8]) | viability at 72 h, 3 µM [9] | Activity (PANC-1 [10]) | Activity (DNA [11]) | Activity (PANC-1 [12]) | Activity (PANC-1 [13]) | Activity (PANC-1 [14]) | Activity (PANC-1 [15]) | fold change (FC) (PANC-1 [16]) | Activity (PANC-1 [17]) |
| --- | --- | --- | --- | --- | --- | --- | --- | --- | --- | --- | --- | --- | --- | --- | --- | --- | --- |
| CN(C)CCCNC(=O)c1nc(NC(=O)c2nc(NC(=O)c3cc(NC(=O)c4nc(NC(=O)CCCNC(=O)c5cc(NC(=O)c6cc(NC(=O)c7cc(NC(=O)c8cc(NC(=O)CCNC(=O)CCCc9ccc(N(CCCl)CCCl)cc9)cn8C)cn7C)cn6C)cn5C)cn4C)cn3C)cn2C)cn1C | Non-Toxic | Active | Active | Active | Active | 78.5% | 85% | Active | 82% | 10.8% | Active | Active | Active | 9.1% | 1.6% | 50 | Active |
| CN(C)CCCNC(=O)c1nc(NC(=O)c2cc(NC(=O)c3nc(NC(=O)c4nc(NC(=O)CCCNC(=O)c5cc(NC(=O)c6cc(NC(=O)c7cc(NC(=O)c8cc(NC(=O)CCNC(=O)CCCc9ccc(N(CCCl)CCCl)cc9)cn8C)cn7C)cn6C)cn5C)cn4C)cn3C)cn2C)cn1C | – | inactive | – | – | – | – | – | – | – | – | Active | – | – | – | – | – | – |
| CN(C)CCCNC(=O)c1cc(NC(=O)c2cc(NC(=O)c3cc(NC(=O)c4cc(NC(=O)CCCNC(=O)c5nc(NC(=O)c6nc(NC(=O)c7cc(NC(=O)c8nc(NC(=O)CCNC(=O)CCCc9ccc(N(CCCl)CCCl)cc9)cn8C)cn7C)cn6C)cn5C)cn4C)cn3C)cn2C)cn1C | Non-Toxic | inactive | Active | inactive | Active | 73.1% | 74.7% | Active | 79.5% | 12.5% | Active | Active | Active | 12.4% | 1.9% | – | Active |
| CN(C)CCCNC(=O)c1cc(NC(=O)c2cc(NC(=O)c3cc(NC(=O)c4cc(NC(=O)CCCNC(=O)c5nc(NC(=O)c6cc(NC(=O)c7nc(NC(=O)c8nc(NC(=O)CCNC(=O)CCCc9ccc(N(CCCl)CCCl)cc9)cn8C)cn7C)cn6C)cn5C)cn4C)cn3C)cn2C)cn1C | Non-Toxic | Active | Active | inactive | Active | 68.7% | 67.7% | Active | 73.8% | 15% | Active | Active | Active | 14% | 2.4% | 50 | Active |
